From patent US10227357B2, “Compounds and methods for kinase modulation, and indications therefor” (Plexxikon Inc., priority 2012, dated 2019)

What follows are compounds tested against T1, c-kit mutant D816V (Homo sapiens, UniProt P10721, D816V/DEL694-753) (assay: c-Kit mutant D816V biochemical assay, AlphaScreen). Details: c-kit D816V biochemical inhibitory activity; read-out: Biochemical activity (IC50 μM) Kit D816V.
T1 construct: residues 551-934, kinase insertion domain residues 694-753 deleted; 6x-histidine (N); made in house; host or cells: E. coli Arctic Express (DE3) RIL (Stratagene)
T1 sequence (P10721 with tags, fused parts or gaps DEL694-753/D816V): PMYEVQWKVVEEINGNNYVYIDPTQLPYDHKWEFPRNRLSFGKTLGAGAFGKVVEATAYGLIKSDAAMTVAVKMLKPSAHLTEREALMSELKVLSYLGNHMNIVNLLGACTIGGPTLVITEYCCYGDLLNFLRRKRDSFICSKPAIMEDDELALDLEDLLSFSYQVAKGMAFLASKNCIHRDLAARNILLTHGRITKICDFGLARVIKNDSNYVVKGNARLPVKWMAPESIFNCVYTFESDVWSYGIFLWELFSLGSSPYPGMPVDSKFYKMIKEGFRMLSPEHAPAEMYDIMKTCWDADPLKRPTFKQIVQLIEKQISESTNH
In short: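 Eight-point, threefold compound series incubated 30 min at room temperature with E. coli-produced D816V kinase, 10 μM ATP, Mg2+/Mn2+ HEPES buffer pH 7.2 and 5% DMSO. After EDTA stop, streptavidin and anti-phosphotyrosine (PY20) AlphaScreen beads gave the read-out, and IC50 was fitted from the concentration–signal curve.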

SMILES	IC50
O=C(NCCc1ccc(F)cc1)NC1CCN(c2ncnc3[nH]ccc23)CC1 [P-0511, 1-[2-(4-fluorophenyl)ethyl]-3-[1-(7H-pyrrolo[2,3-d]pyrimidin-4-yl)-4-piperidyl]urea]	10 to 200 µM
O=C(Nc1ccc(F)c(Cl)c1)NC1CCN(c2ncnc3[nH]ccc23)CC1 [P-0512, 1-(3-chloro-4-fluoro-phenyl)-3-[1-(7H-pyrrolo[2,3-d]pyrimidin-4-yl)-4-piperidyl]urea]	10 to 200 µM
O=C(Nc1ccc(OC(F)(F)F)cc1)NC1CCN(c2ncnc3[nH]ccc23)CC1 [P-0513, 1-[1-(7H-pyrrolo[2,3-d]pyrimidin-4-yl)-4-piperidyl]-3-[4-(trifluoromethoxy)phenyl]urea]	10 to 200 µM
O=C(Nc1ccc(C(F)(F)F)cc1)NC1CCN(c2ncnc3[nH]ccc23)CC1 [P-0514, 1-[1-(7H-pyrrolo[2,3-d]pyrimidin-4-yl)-4-piperidyl]-3-[4-(trifluoromethyl)phenyl]urea]	10 to 200 µM
O=C(Nc1ccc(F)cc1)N1CC2CCC1CN2c1ncnc2cc(-c3ccc(F)cc3)sc12 (stereo not drawn) [P-0546, N-(4-fluorophenyl)-5-[6-(4-fluorophenyl)thieno[3,2-d]pyrimidin-4-yl]-2,5-diazabicyclo[2.2.2]octane-2-carboxamide]	1 to 10 µM
COc1cccc(CNC(=O)N2CC3CCC2CN3c2ncnc3cc(-c4ccc(F)cc4)sc23)c1 (stereo not drawn) [P-0547, 5-[6-(4-fluorophenyl)thieno[3,2-d]pyrimidin-4-yl]-N-[(3-methoxyphenyl)methyl]-2,5-diazabicyclo[2.2.2]octane-2-carboxamide]	0.0001 to 1 µM
COc1cccc([C@H](C)NC(=O)N2CC3CCC(C2)N3c2ncnc3cc(-c4ccc(F)cc4)sc23)c1 [P-0550, 8-[6-(4-fluorophenyl)thieno[3,2-d]pyrimidin-4-yl]-N-[(1S)-1-(3-methoxyphenyl)ethyl]-3,8-diazabicyclo[3.2.1]octane-3-carboxamide]	1 to 10 µM
COc1cccc(CNC(=O)N2CC3CCC(C2)N3c2ncnc3cc(-c4ccc(F)cc4)sc23)c1 [P-0551, 8-[6-(4-fluorophenyl)thieno[3,2-d]pyrimidin-4-yl]-N-[(3-methoxyphenyl)methyl]-3,8-diazabicyclo[3.2.1]octane-3-carboxamide]	1 to 10 µM
C[C@H](NC(=O)N1CCN(c2ncnc3cc(-c4ccc(F)cc4)sc23)CC1(C)C)c1cccc(F)c1 [P-0578, N-[(1S)-1-(3-fluorophenyl)ethyl]-4-[6-(4-fluorophenyl)thieno[3,2-d]pyrimidin-4-yl]-2,2-dimethyl-piperazine-1-carboxamide]	1 to 10 µM
C[C@H](NC(=O)N1CCN(c2ncnc3cc(Br)sc23)CC1)c1ccc(F)cc1 [P-0597, 4-(6-bromothieno[3,2-d]pyrimidin-4-yl)-N-[(1S)-1-(4-fluorophenyl)ethyl]piperazine-1-carboxamide]	1 to 10 µM
C[C@H](NC(=O)N1CCN(c2ncnc3cc(-c4ccc(F)cc4)sc23)C[C@H]1C)c1ccc(F)cc1 [P-0601, (2R)-N-[(1S)-1-(4-fluorophenyl)ethyl]-4-[6-(4-fluorophenyl)thieno[3,2-d]pyrimidin-4-yl]-2-methyl-piperazine-1-carboxamide]	1 to 10 µM
O=C(NCc1ccccc1)N1CCN(c2ncnc3cc(Br)sc23)CC1 [P-0629, N-benzyl-4-(6-bromothieno[3,2-d]pyrimidin-4-yl)piperazine-1-carboxamide]	10 to 200 µM
CCS(=O)(=O)Nc1ccc(-c2ncnc3cc(-c4ccc(F)cc4)sc23)cc1 [P-0630, N-[4-[6-(4-fluorophenyl)thieno[3,2-d]pyrimidin-4-yl]phenyl]ethanesulfonamide]	1 to 10 µM
CC(=O)Nc1ccc(-c2ncnc3cc(-c4ccc(F)cc4)sc23)cc1 [P-0632, N-[4-[6-(4-fluorophenyl)thieno[3,2-d]pyrimidin-4-yl]phenyl]acetamide]	10 to 200 µM
Nc1ccc(-c2ncnc3cc(-c4ccc(F)cc4)sc23)cc1 [P-0634, 4-[6-(4-fluorophenyl)thieno[3,2-d]pyrimidin-4-yl]aniline]	1 to 10 µM
O=S(=O)(NCc1ccccc1)c1ccc(-c2ncnc3cc(-c4ccc(F)cc4)sc23)cc1 [P-0635, N-benzyl-4-[6-(4-fluorophenyl)thieno[3,2-d]pyrimidin-4-yl]benzenesulfonamide]	0.0001 to 1 µM
Cc1ccc(S(=O)(=O)Nc2ccc(-c3ncnc4cc(-c5ccc(F)cc5)sc34)cc2)cc1 [P-0636, N-[4-[6-(4-fluorophenyl)thieno[3,2-d]pyrimidin-4-yl]phenyl]-4-methyl-benzenesulfonamide]	0.0001 to 1 µM
O=C(Nc1ccc(F)cc1)N1CCN(c2ncnc3ccsc23)CC1 [P-0640, N-(4-fluorophenyl)-4-thieno[3,2-d]pyrimidin-4-yl-piperazine-1-carboxamide]	0.0001 to 1 µM
CCCc1ccc(S(=O)(=O)NC2CC=C(c3ncnc4[nH]c(C)cc34)CC2)cc1 (stereo not drawn) [P-0651, N-[4-(6-methyl-7H-pyrrolo[2,3-d]pyrimidin-4-yl)cyclohex-3-en-1-yl]-4-propyl-benzenesulfonamide]	0.0001 to 1 µM
Cc1cc2c(C3=CCC(NS(=O)(=O)c4ccc(OC(C)C)cc4)CC3)ncnc2[nH]1 (stereo not drawn) [P-0652, 4-isopropoxy-N-[4-(6-methyl-7H-pyrrolo[2,3-d]pyrimidin-4-yl)cyclohex-3-en-1-yl]benzenesulfonamide]	1 to 10 µM
Cc1cc2c(C3=CCC(NS(=O)(=O)c4ccc(OC(F)F)cc4)CC3)ncnc2[nH]1 (stereo not drawn) [P-0653, 4-(difluoromethoxy)-N-[4-(6-methyl-7H-pyrrolo[2,3-d]pyrimidin-4-yl)cyclohex-3-en-1-yl]benzenesulfonamide]	1 to 10 µM
Cc1cc2c(N3CCC(NS(=O)(=O)c4ccc(OC(F)F)cc4)CC3)ncnc2[nH]1 [P-0656, 4-(difluoromethoxy)-N-[1-(6-methyl-7H-pyrrolo[2,3-d]pyrimidin-4-yl)-4-piperidyl]benzenesulfonamide]	10 to 200 µM
Cc1cc2c(N3CCC(NS(=O)(=O)c4ccc(C(C)C)cc4)CC3)ncnc2[nH]1 [P-0657, 4-isopropyl-N-[1-(6-methyl-7H-pyrrolo[2,3-d]pyrimidin-4-yl)-4-piperidyl]benzenesulfonamide]	10 to 200 µM
CCCc1ccc(S(=O)(=O)NC2CCN(c3ncnc4[nH]c(C)cc34)CC2)cc1 [P-0658, N-[1-(6-methyl-7H-pyrrolo[2,3-d]pyrimidin-4-yl)-4-piperidyl]-4-propyl-benzenesulfonamide]	1 to 10 µM
Cc1ccc(S(=O)(=O)NC2CCN(c3ncnc4[nH]c(-c5cn(C)nc5C)cc34)CC2)cc1 [P-0659, N-[1-[6-(1,3-dimethylpyrazol-4-yl)-7H-pyrrolo[2,3-d]pyrimidin-4-yl]-4-piperidyl]-4-methyl-benzenesulfonamide]	0.0001 to 1 µM
COc1cc(-c2cc3c(N4CCC(NS(=O)(=O)c5ccc(C)cc5)CC4)ncnc3[nH]2)ccn1 [P-0660, N-[1-[6-(2-methoxy-4-pyridyl)-7H-pyrrolo[2,3-d]pyrimidin-4-yl]-4-piperidyl]-4-methyl-benzenesulfonamide]	0.0001 to 1 µM
Cc1csc(-c2cc3c(N4CCC(NS(=O)(=O)c5ccc(OC(F)(F)F)cc5)CC4)ncnc3[nH]2)c1 [P-0661, N-[1-[6-(4-methyl-2-thienyl)-7H-pyrrolo[2,3-d]pyrimidin-4-yl]-4-piperidyl]-4-(trifluoromethoxy)benzenesulfonamide]	10 to 200 µM
